From article PMC11345829, “Discovery of Potent Isoquinolinequinone N-Oxides to Overcome Cancer Multidrug Resistance” (Journal of Medicinal Chemistry, 2024)

Columns and labels:
DLD1 spheroids = assay: Cell Titer-Glo 3D spheroid viability assay; format: cell-based, human; conditions: 48 h; 25 at 0.61 and 1.22 μM
Text: (§1) Figure 12 Effect of compound 25 on the viability of spheroids established from two counterpart pairs of sensitive and MDR cell lines, from NSCLC (NCI-H460 and NCI-H460/R) and colorectal cancer (DLD1 and DLD1-TxR), using MicroTissue 3D Petri dishes. […] (B) Effect of compound 25 on the viability of NCI-H460 spheroids analyzed by Cell Titer-Glo 3D viability assay. (C) Effect of compound 25 on the viability of NCI-H460/R spheroids analyzed with the Cell Titer-Glo 3D viability assay. Results are presented as the % of luciferase luminescence relative to the “blank” cells (medium). […] (E) Effect of compound 25 on the viability of DLD1 spheroids analyzed by Cell Titer-Glo 3D viability assay. (F) Effect of compound 25 on the viability of DLD1-TxR spheroids analyzed with the Cell Titer-Glo 3D viability assay. Data are expressed as mean ± SEM from 3 independent experiments. * p ≤ 0.05 and ** p ≤ 0.01, when comparing DMSO vs compound treatment.
(§2) Spheroid formation was conducted in 12-series agarose 3D Petri Dish micromolds (MicroTissues Technology, MicroTissues Inc., Sigma-Aldrich). The agarose micromolds were prepared using 1% agarose in a 0.9% NaCl solution and then placed in 12-well plates and equilibrated with RPMI supplemented with 10% FBS for at least 2 h before cell seeding. Cell suspensions corresponding to 500 cells per spheroid of the NSCLC cell lines (NCI-H460 and NCI-H460/R), and 1000 cells per spheroid of the colorectal cancer cell lines (DLD1 and DLD1-TxR) were seeded in the corresponding micromolds. The choice of cell seeding concentration was based on a previous optimization assay (data not shown), ensuring that at the end of the assay the spheroids would have a size of around 400 μm. A 20 min incubation period was used for cells to settle into the micromolds and additional medium was finally added to the wells. Spheroid formation was monitored with the Leica DMi1 microscope. […] At the end of the treatment, images from at least 8 different spheroids per condition were captured on the Leica Dmi1 microscope, and posteriorly analyzed with the automated open-source software AnaSP.[82] Spheroid parameters, such as equivalent diameter, circularity, and compactness, were calculated.
(§3) Spheroid viability was determined through the luminescence-based Cell Titer-Glo 3D cell viability assay (Promega). Spheroids grown on MicroTissues 3D Petri Dish micromolds were exposed to the treatments, as described in the previous section. Then, the spheroids were transferred into 96-well plates in 50 μL of RPMI medium. […] The plate was then incubated in the dark for 5 min with agitation and allowed to rest for 25 min before luminescence measurement. Luminescence was quantified using the microplate reader Synergy MX coupled with the GEN5 software. […]

DLD1-TxR spheroids = assay: Cell Titer-Glo 3D spheroid viability assay; format: cell-based, human; conditions: 48 h; 25 at 0.61 and 1.22 μM
Text: as §1, §2, §3

NCI-H322 = assay: NCI60 five-dose GI50 (NCI data); format: cell-based; conditions: Homo sapiens, SI Table S20
Text: The concentration−response curve generated enables the determination of three criteria, GI50 (drug concentration at which 50% of cell growth is inhibited), total growth inhibition (TGI) and LC50 (drug concentration at which 50% of tumor cells are killed) which can be used to compare effectiveness against any compound tested in the screen since its inception.
S2.1 NCI Screening Assay Experimental details
NCI Screening Assay Experimental: Cancer cell growth assays (NCI60 screening) 5,6 One-dose study: Tested compounds were initially solubilised in DMSO, diluted into RPMI 1640 and 5% fetal bovine serum/L-glutamine, and added to 96-well plates containing cell lines previously cultured for 24 h. After 48 h incubation, the media were removed, and the cells were fixed and stained with sulforhodamine B to determine overall percent growth/ total protein content. Unbound dye was removed with five washes of 1% acetic acid, and the plates were allowed to air dry. The dye was then resolubilised in Tris buffer, and the colorimetric absorbance was measured (515 nm). Growth inhibition was measured relative to the response generated from proliferating cells cultured under identical conditions for 48 h. Data from one-dose experiments pertains to the percentage growth at […]
Five-dose study: Serial 5 × 10-fold dilution from an initial DMSO stock solution was performed, prior to incubation at each individual concentration (10 nM, 100 nM, 1 μM, 10 μM and 100 μM). Using seven absorbance measurements (time zero (Tz), control growth (C), and test growth in the presence of drug at the five concentration levels (Ti)), the percentage growth was calculated at each of the drug concentrations levels. Percentage growth inhibition was calculated as: [(Ti − Tz)/(C − Tz)] × 100 for concentrations for which Ti ≥ Tz, [(Ti − Tz)/Tz] × 100 for concentrations for which Ti < Tz. Three dose response parameters were calculated for each experimental agent. […]
was calculated from [(Ti − Tz)/(C − Tz)] × 100 = 50, which is the drug concentration resulting in a 50% reduction in the net protein increase (as measured by sulforhodamine B staining) in control cells during the drug incubation. The drug concentration resulting in total growth inhibition (TGI) was calculated from Ti = Tz. The LC50 (concentration of drug resulting in a 50% reduction in the measured protein at the end of the drug treatment as compared to that at the beginning) indicating a net loss of cells following treatment was calculated from [(Ti − Tz)/Tz] × 100 = −50. Values were calculated for each of these three parameters if the level of activity was reached; however, if the effect was not reached or was exceeded, the value for that parameter was expressed as greater or less than the maximum or minimum concentration tested.

COC(=O)c1c2c(c[n+]([O-])c1C)C(=O)C=C(NCc1ccccc1)C2=O [Compound 25]
viability of DLD1 spheroids (DLD1 spheroids): significant decrease in the viability of the spheroids
viability of DLD1-TxR spheroids (DLD1-TxR spheroids): significant decrease in the viability of the spheroids
GI50 (NCI-H322): 174 nM
